This data set is described as follows: Water retention property test 2 (hydrates). Type of data set: physicochemical. To be noted: hydrate (anhydrides: aqueous solution at mono- to trihydrate concentration); for Pre-test moisture rate: before the test; for Post-test moisture rate / Rate of reduction in moisture: unsealed, 24 hours at 40° C. and 25% RH. On the procedure:
(2) Water retention property test 2 The water retention property of the hydrate of each compound was evaluated. Hydrates were used in the cases of the compounds C1 to C38, C40 to C49 and C56 to C59; however, since the compounds C39 and C62 to C64 were anhydrides, there were used aqueous solutions prepared by adding water so that a concentration would be that of monohydrate to trihydrate. The moisture rate of the sample(s) was confirmed using a Karl Fischer moisture meter (pre-test moisture rate: A). Next, 1.0 g of each of these samples was added to a screw tube, and this screw tube, while remaining unsealed, was then left to stand still for 24 hours in a thermo-hygrostat set to 40° C. and 25% RH. A moisture rate after 24 hours was again measured (post-test moisture rate: B), followed by calculating a rate of reduction in moisture in a similar manner as above so as to evaluate the water retention property. Here, a comparative evaluation was performed on each hydrate of the compounds C1 to C38, C40 to C49 and C56 to C59 together with an aqueous solution(s) of the compound C39 having a concentration(s) corresponding to the numbers of these hydration waters.
(monohydrates in compounds C1 to C38, C40 to C49 and C56 to C59 of working examples C62 to C99, C103 to C116 with compound C39 of working example C100, compound C62 of comparative example C4, compound C63 of comparative example C7 and compound C64 of comparative example C10)
(dihydrates in compounds C1 to C38, C40 to C49 and C56 to C59 of working examples C62 to C99, C103 to C116 with compound C39 of working example C101, compound C62 of comparative example C5, compound C63 of comparative example C8 and compound C64 of comparative example C11)
(trihydrates in compounds C1 to C38, C40 to C49 and C56 to C59 of working examples C62 to C99, C103 to C116 with compound C39 of working example C102, compound C62 of comparative example C6, compound C63 of comparative example C9 and compound C64 of comparative example C12)

For the compound `NC(CO)CO.O=C(O)CO` [Working example C68], the Pre-test moisture rate is 17.7%, the Post-test moisture rate is reported as 17.3% and the “Rate of reduction in moisture” value was 2.0%.
For `C[N+](C)(C)CCO.O=C([O-])C=CC(=O)O` [Working example C91], in that order: 7.6%, 7.2% and 5.0%.
The corresponding values for `C[N+](C)(C)CCO.[Cl-]` [Working example C96] are 11.4%, 10.7% and 6.0%.
For `CC(O)C(=O)O.NC(CO)CO` (stereo not drawn) [Working example C69], in that order: 16.6%, 16.1% and 2.8%.
Consider `O=C(O)CCC(=O)O.OCCNCCO` [Working example C65], for which the Pre-test moisture rate was 13.9%, the Post-test moisture rate came out at 13.1% and the “Rate of reduction in moisture” value is recorded as 6.0%.
For `CC(=O)OCC[N+](C)(C)C.O=C1O[C@H]([C@@H](O)CO)C([O-])=C1O` [Working example C112], in that order: 10.1%, 9.9% and 2.0%.
The corresponding values for `CCCC[N+](CCCC)(CCCC)CCCC.[Br-]` [Comparative example C4] are 2.5%, 4.9% and 8.1%.
Turning to `CC(C)(N)CO.O=C1OC(C(O)CO)C(O)=C1O` (stereo not drawn) [Working example C115], the Pre-test moisture rate turned out to be 12.0%, the Post-test moisture rate was found to be 11.7% and the “Rate of reduction in moisture” value is 2.9%.
For `OCC(O)CO` [Comparative example C12], in that order: 37.0%, 31.9% and 13.7%.
The corresponding values for `CC(O)C(=O)O.NCC(O)C(O)C(O)C(O)CO` (stereo not drawn) [Working example C84] are 11.7%, 11.4% and 2.8%.
The corresponding values for `C[N+](C)(C)CCO.O=C([O-])CCC(=O)O` [Working example C92] are 7.5%, 7.1% and 5.0%.
On to `CCC(N)(CO)CO.CS(=O)(=O)O` [Working example C78], for which the Pre-test moisture rate is recorded as 14.3%, the Post-test moisture rate amounted to 14.2% and the “Rate of reduction in moisture” value was 0.9%.
With `CC(O)C(=O)O.N` (stereo not drawn) [Working example C85], the Pre-test moisture rate came to 14.4%, the Post-test moisture rate came to 13.7% and the “Rate of reduction in moisture” value was determined as 4.7%.
The corresponding values for `CC(O)C(=O)[O-].C[N+](C)(C)CCO` [Working example C90] are 8.5%, 8.1% and 4.9%.
For `CC(O)C(=O)[O-].CCCC[N+](CCCC)(CCCC)CCCC` [Working example C102], in that order: 14.0%, 12.3% and 12.0%.
With `CC[N+](C)(C)CCO.CS(=O)(=O)[O-]` [Working example C97], the Pre-test moisture rate turned out to be 7.8%, the Post-test moisture rate was 7.7% and the “Rate of reduction in moisture” value came to 1.9%.
For `NC(CO)CO.O=C1O[C@H]([C@@H](O)CO)C(O)=C1O` [Comparative example C106], in that order: 11.9%, 11.7% and 1.7%.
For `C[N+](C)(CCO)CC(O)C[N+](C)(C)CCO.[Cl-].[Cl-]` [Working example C99], in that order: 10.5%, 9.4% and 10.2%.
On to `CS(=O)(=O)[O-].C[N+](C)(C)CCO` [Working example C93], for which the Pre-test moisture rate amounted to 8.3%, the Post-test moisture rate worked out at 8.1% and the “Rate of reduction in moisture” value came out at 2.0%.
The corresponding values for `NC(CO)(CO)CO.O=C1OC(C(O)CO)C(O)=C1O` (stereo not drawn) [Working example C108] are 10.8%, 10.5% and 2.8%.
For `CC(O)C(=O)[O-].CCC(CO)(CO)[N+](CC(O)CO)(CC(O)CO)CC(O)CO` (stereo not drawn) [Working example C86], in that order: 7.9%, 7.5% and 4.8%.
The corresponding values for `CCCCn1cc[n+](C)c1.F[B-](F)(F)F` [Comparative example C8] are 13.8%, 7.1% and 48.6%.
For `NC(CO)CO.O=C(O)CCC(=O)O` [Working example C70], the Pre-test moisture rate is reported as 14.7%, the Post-test moisture rate is 13.9% and the “Rate of reduction in moisture” value is given as 5.4%.
The corresponding values for `CS(=O)(=O)O.NC(CO)(CO)CO` [Working example C83] are 14.2%, 14.0% and 1.1%.
The corresponding values for `OCC(O)CO` [Comparative example C11] are 28.1%, 24.4% and 13.3%.
The corresponding values for `CCC(N)(CO)CO.Cl` [Working example C80] are 18.8%, 17.0% and 9.8%.
Take `CC(O)C(=O)[O-].CCCC[N+](CCCC)(CCCC)CCCC` [Working example C100]: the Pre-test moisture rate amounted to 5.2%, the Post-test moisture rate was 4.9% and the “Rate of reduction in moisture” value turned out to be 6.4%.
For `O=C1O[C@H]([C@@H](O)CO)C(O)=C1O.OCCNCCO` [Comparative example C104], in that order: 11.4%, 11.0% and 3.5%.
The corresponding values for `Cl.NC(CO)CO` [Working example C75] are 22.0%, 19.7% and 10.5%.
The corresponding values for `CC(O)C(=O)O.OCCNCCO` [Working example C63] are 15.6%, 14.9% and 4.6%.
`CCCC[N+](CCCC)(CCCC)CCCC.[Br-]` [Comparative example C5]: the Pre-test moisture rate is 10.1%, the Post-test moisture rate was 8.6% and the “Rate of reduction in moisture” value is 15.1%.
For `F[B-](F)(F)F.[NH3+]C(CO)CO` [Working example C73], in that order: 16.8%, 15.9% and 5.5%.
The corresponding values for `O=C1OC(C(O)CO)C(O)=C1O.OCCN(CCO)CCO` (stereo not drawn) [Comparative example C105] are 10.0%, 9.8% and 2.0%.
The corresponding values for `CC(N)(CO)CO.O=C1O[C@H]([C@@H](O)CO)C(O)=C1O` [Working example C116] are 11.4%, 11.1% and 2.9%.
As to `NCCO.O=C1O[C@H]([C@@H](O)CO)C(O)=C1O` [Working example C103], the Pre-test moisture rate was 13.2%, the Post-test moisture rate was 13.0% and the “Rate of reduction in moisture” value was determined as 1.5%.
With `C[N+](C)(C)CC(O)CC(=O)O.O=C1O[C@H]([C@@H](O)CO)C([O-])=C1O` [Working example C111], the Pre-test moisture rate was 9.7%, the Post-test moisture rate was 9.6% and the “Rate of reduction in moisture” value was found to be 1.0%.
The corresponding values for `CC(O)C(=O)O.NC(CO)(CO)CO` [Working example C81] are 13.2%, 12.9% and 2.6%.
The corresponding values for `C[N+](C)(C)CCO.O=[PH2][O-]` [Working example C95] are 9.6%, 9.3% and 2.9%.

For the origin of these results see US20250090437A1, “COSMETIC COMPOUNDING AGENT, COSMETIC AND PRODUCTION METHOD THEREOF” (MIYOSHI OIL & FAT CO., LTD., priority 2019, published 2025).
